Assays:
Type in all cases: cell-based
[1] = target: GSPT1 (Homo sapiens, UniProt P15170+Q96SW2); experiment: GSPT1 Cellular Degradation Assay (DF15-GSPT1-ePL); set-up: expressed in transfected cells; conditions: DF15-GSPT1-ePL cells, 20 hours
Excerpt: DF15-GSPT1-ePL was used for intracellular GSPT1 protein degradation detection in form of chemiluminescent signal, which was built on a human DF15 cell line (CVCL_Y429) with conditional co-expression of chimeric GSPT1 (target) and ePL/donor (enhanced ProLabel® by DiscoverX for enzyme fragment complementation with donor-acceptor pairing). The cells used the culture medium in two arrangements for assay and maintenance. During assay, it used Core-RPMI 1640 medium with 10% Fetal Bovine Serum (Heat Inactivated) and 1× Penicillin/Streptomycin; and during passage maintenance, used added ingredients: 0.1 mM NEAA, 1 mM sodium pyruvate, 25 mM Hepes, 0.1% Pluronic F-68, 1× Glutamin, 4 μg/mL Blasticidin (selection agent). Detection was performed on a 1536 well tissue culture plate (Corning #3727) with cells seeded in 3.5 μL core-RPMI 1640 at density of 0.25 million/mL after the pre-titrated test compounds in DMSO on ECHO plate were dispensed onto the assay plate by use of ECHO (liquid handing system via acoustic energy from Labcyte). Assay incubation lasted 20 hours in 37° C. incubator with 5% CO2; then followed by 30 minutes of plate-cooling at room temperature; then detection-reagent-mix was added in 3.5 μL/well with pre-defined proportion of enzyme acceptor, substrate, and lysis buffer. Plate signal reading for luminescence on an EnVision plate reader (PerkinElmer) was conducted after 60 minutes of former step at room temperature. Raw data was collected and processed with Dotmatics (data analyzer) for test compound's potency values. The reference compound, 3-[5-(3,6-dimethoxyisoquinolin-1-yl)-1-oxo-2,3-dihydro-1H-isoindol-2-yl]piperidine-2,6-dione, at […] was used to define 75% response. Assay results for each compound were reported as DC50, the concentration giving 50% response, and Dmax, the maximum response observed with the compound.

[2] = tested on: Phospho-Rb (Ser807/811); experiment: Phospho-Retinoblastoma (pRB) Cellular Assay; conditions: Homo sapiens, OVCAR-3, NIH OVCAR3 cells, 24 hours; for IC50: concentration giving 50% response; for Emax: maximum response, reference compound at 10 μM = 100%, read-out: pRB Ymax
Method: Phospho-Retinoblastoma (pRB) Cellular Assay
NIH OVCAR3 (HTB-161, American Type Culture Collection, Manassas VA) cells were grown up to passage 10 in culture media made up of RPMI (11835-030 Gibco, Grand Island NY), 20% HI FBS (16140-071, Gibco, Grand Island NY), and 0.01 mg/mL insulin from bovine pancreas (I6634-1G, Sigma Aldrich, St. Louis, MO).
The cells were seeded in a 384-well CulturPlate (6007688, Perkin Elmer, Waltham MA) at a density of 10,000 cells/well in 20 μL of the above culture media and incubated overnight at 37° C. and 5% CO2.
The next day, cells were treated using an Echo 650 (Beckman Coulter, Indianapolis IN) acoustic dispenser with 40 nL of compounds dissolved in DMSO at the appropriate serial dilutions (10 mM to […]). Cells were then incubated for 24 hours as above.
After 24 hours elapsed, media was removed from each well and shortly after 20 μL of the following mix was added: 12 μL deionized water, 4 μL lysis buffer, 4 μL of reconstituted antibody mix, and 1:100 phosphatase inhibitor. These components belong to the Phospho-Rb (Ser807/811) Cellular Kit (64RBS807PEY, Perkin Elmer, Waltham MA).
Plates were sealed and incubated away from light at room temperature for at least 4 hours before reading them on an EnVision plate reader (Perkin Elmer, Waltham MA) according to the kit manufacturer's protocol. The reference compound, N-(5-{[(5-tert-butyl-1,3-oxazol-2-yl)methyl]sulfanyl}-1,3-thiazol-2-yl)piperidine-4-carboxamide, at 10 μM was used to define 100% response. Assay results for each compound were reported as IC50, the concentration giving 50% response, and Ymax, the maximum response observed with the compound.

[3] = target: Cyclin E1 (Homo sapiens, UniProt P24864+Q96SW2); experiment: Cyclin E1 Cellular Degradation Assay (MSD); set-up: endogenous in cells; host or cells: OVCAR3; conditions: for DC50 / Dmax: Cyclin E1 cellular degradation; for Dmax: maximum degradation; for Ratio of GSPT1 DC50/Cyclin E1 DC50: selectivity for degradation of Cyclin E1 over GSPT1
Sequence of Cyclin E1 (P24864 whole entry): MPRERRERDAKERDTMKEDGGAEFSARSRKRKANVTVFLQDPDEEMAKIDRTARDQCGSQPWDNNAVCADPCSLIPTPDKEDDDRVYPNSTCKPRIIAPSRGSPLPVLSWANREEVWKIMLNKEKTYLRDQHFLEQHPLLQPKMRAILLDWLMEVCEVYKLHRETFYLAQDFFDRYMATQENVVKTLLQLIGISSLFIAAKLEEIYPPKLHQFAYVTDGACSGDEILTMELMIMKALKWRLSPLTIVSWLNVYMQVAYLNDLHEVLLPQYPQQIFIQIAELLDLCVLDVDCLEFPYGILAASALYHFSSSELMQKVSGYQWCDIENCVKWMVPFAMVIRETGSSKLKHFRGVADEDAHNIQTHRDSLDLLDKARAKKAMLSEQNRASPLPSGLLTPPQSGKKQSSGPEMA
Sequence of Cyclin E1 (Q96SW2 whole entry): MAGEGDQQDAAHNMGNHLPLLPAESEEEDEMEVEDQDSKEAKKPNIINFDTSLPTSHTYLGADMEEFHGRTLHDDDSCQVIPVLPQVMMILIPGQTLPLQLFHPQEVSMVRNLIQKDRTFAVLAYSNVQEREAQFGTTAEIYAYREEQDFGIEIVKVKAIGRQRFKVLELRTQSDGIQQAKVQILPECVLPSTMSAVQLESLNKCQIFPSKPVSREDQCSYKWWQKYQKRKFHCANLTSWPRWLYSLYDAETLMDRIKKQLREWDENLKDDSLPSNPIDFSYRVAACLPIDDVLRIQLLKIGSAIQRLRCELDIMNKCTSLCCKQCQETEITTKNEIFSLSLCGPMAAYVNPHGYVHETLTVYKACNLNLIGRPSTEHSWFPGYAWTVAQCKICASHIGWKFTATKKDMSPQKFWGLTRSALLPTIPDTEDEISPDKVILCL
Sequence of Cyclin E1 (Q16531 whole entry partner): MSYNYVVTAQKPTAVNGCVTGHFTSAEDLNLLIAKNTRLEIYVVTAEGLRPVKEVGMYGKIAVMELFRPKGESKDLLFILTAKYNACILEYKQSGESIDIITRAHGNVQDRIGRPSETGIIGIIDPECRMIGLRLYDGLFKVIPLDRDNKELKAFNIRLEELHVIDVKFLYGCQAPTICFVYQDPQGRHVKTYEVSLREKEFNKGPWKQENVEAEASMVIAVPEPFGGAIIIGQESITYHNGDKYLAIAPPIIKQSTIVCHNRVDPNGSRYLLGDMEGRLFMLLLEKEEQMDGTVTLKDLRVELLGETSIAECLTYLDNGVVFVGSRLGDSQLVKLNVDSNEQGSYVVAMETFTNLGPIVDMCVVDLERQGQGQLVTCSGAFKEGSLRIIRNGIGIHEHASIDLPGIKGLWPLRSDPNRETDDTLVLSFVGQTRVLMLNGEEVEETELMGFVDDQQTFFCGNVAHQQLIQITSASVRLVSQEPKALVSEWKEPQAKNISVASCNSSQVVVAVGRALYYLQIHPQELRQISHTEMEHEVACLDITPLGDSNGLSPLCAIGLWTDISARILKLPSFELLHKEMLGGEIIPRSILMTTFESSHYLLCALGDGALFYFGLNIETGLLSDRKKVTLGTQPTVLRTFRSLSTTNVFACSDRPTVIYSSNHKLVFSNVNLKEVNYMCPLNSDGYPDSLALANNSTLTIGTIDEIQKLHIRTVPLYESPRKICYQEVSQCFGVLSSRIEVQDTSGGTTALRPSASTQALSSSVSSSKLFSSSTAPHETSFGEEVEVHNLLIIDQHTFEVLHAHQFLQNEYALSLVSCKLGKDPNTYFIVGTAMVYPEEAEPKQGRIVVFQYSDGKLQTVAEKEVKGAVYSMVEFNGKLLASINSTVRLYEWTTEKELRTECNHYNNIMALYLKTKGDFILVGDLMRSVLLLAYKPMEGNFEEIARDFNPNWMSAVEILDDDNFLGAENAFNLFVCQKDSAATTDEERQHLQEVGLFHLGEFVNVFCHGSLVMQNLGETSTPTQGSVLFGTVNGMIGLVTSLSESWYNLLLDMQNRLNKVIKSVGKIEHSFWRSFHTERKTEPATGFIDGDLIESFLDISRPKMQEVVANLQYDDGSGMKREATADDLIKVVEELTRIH
Method: Culturing cells: On Day 0, OVCAR3 cells were plated at 15,000 cells/well in 40 μL of culture medium (RPMI1640, 20% FBS, 0.01 insulin, 1% Anti/Anti) in a 384 well cell culture plate. Cell cultures were incubated for 24 hours at 37° C. and 5% CO2.
Coating MSD plates: On Day 1, rabbit anti-CCNE1 antibody (Abcam ab33911, 1 μg/mL in DPBS, […]) was dispensed to a Meso Scale Discovery plate (MSD L21XA). The MSD plate was spun briefly to ensure the solution coated the bottom of the well and incubated overnight at 4° C. On Day 2, the plate was washed 3 times with TBS +0.2% TWEEN, blocked for 1 hour with 3% MSD Blocker A (MSD R93AA-1, 30 μL/well), then washed again 3 times with TBS+0.2% TWEEN.
Treating and lysing cells: On Day 1, compounds of interest were dispensed into the cell cultures by acoustic dispensing technology. The cell cultures were then spun at 400 g for 4 minutes to disperse the compounds and incubated at 37° C. and 5% CO2 for 24 hours. After incubation, 40 μL of DPBS was added to the cell cultures to dilute the media. All liquid was gently discarded and immediately replaced with 30 μL of lysis buffer (MSD Tris Lysis buffer (MSD R60TX-2), Halt Protease inhibitor (ThermoFisher 78438), Phosphatase Inhibitor II (Sigma-Aldrich P5726), Phosphatase Inhibitor III (Sigma-Aldrich P0044), 0.02M PMSF (Sigma-Aldrich 7626), 0.1% SDS (VWR E719-100ML)). The plate was then sealed, shaken at 300 rpm at room temperature for 5 minutes, and freeze-thawed for optimum cell lysis.
Collecting data: After thawing, 25 μL of lysate was transferred to a coated MSD plate. The plate was then sealed and shaken at 300 rpm overnight in 4° C. On Day 3, the MSD plate was washed 3 times with TBS+0.2% TWEEN. Mouse anti-CCNE1 antibody (Abcam ab238081, 0.5 μg/mL in 1% MSD Blocker A, 10 μL/well) dispensed to the MSD plate, which was then sealed and shaken at room temperature for 3 hours. After the first antibody incubation, the plate was washed 3 times with TBS+0.2% TWEEN, then goat anti-mouse Sulfo-Tag antibody (MSD R32AC, 1 μg/mL in 1% MSD Blocker A, 10 μL/well) was dispensed to the MSD plate. The plate was sealed again and shaken at room temperature for 1 hour, then washed 3 times with TBS+0.2% TWEEN. After the final wash, 35 μL of 1× Read Buffer (MSD R92TC-1) was added to each well and the data was captured using the MSD plate reader. The reference compound, [2-(2,6-dioxopiperidin-3-yl)-4-methoxy-3-oxo-2,3-dihydro-1H-isoindol-5-yl]methyl N-[4-(3,4-difluorophenoxy)phenyl]carbamate, at […] was used to define […]. Assay results for each compound were reported as DC50, the concentration giving 50% response, and Dmax, the maximum response observed with the compound.

Sequence of GSPT1 (P15170 whole entry, the tested form may be a part): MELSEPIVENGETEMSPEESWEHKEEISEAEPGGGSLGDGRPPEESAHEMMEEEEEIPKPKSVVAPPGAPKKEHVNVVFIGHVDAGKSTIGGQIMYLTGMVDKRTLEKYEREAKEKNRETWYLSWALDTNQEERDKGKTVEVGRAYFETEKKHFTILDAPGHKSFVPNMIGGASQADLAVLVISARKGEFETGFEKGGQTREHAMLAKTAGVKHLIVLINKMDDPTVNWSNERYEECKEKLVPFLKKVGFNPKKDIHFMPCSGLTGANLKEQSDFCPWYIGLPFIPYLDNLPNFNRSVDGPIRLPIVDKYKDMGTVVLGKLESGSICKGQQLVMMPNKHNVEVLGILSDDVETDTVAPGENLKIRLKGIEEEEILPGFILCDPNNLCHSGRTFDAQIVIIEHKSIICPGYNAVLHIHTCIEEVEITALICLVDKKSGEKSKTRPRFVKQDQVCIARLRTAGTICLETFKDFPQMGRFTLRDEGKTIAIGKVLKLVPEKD
Sequence of GSPT1 (Q96SW2 whole entry, the tested form may be a part): as the sequence (Q96SW2 whole entry) above
Sequence of GSPT1 (Q16531 whole entry partner, the tested form may be a part): as the sequence (Q16531 whole entry partner) above

SMILES	DC50 [1] [nM]	Dmax [1] [%]	IC50 [2] [nM]	DC50 [3] [nM]	Dmax [3] [%]	Ratio of GSPT1 DC50/Cyclin E1 DC50 [3]	Emax [2] [%]
COc1c(COC(=O)Nc2ccc(Cc3ccc(F)c(F)c3)cc2C)ccc2c1C(=O)N(C1CCC(=O)NC1=O)C2 (stereo not shown) [Example 18, [2-(2,6-dioxopiperidin-3-yl)-4-methoxy-3-oxo-2,3-dihydro-1H-isoindol-5-yl]methyl N-{4-[(3,4-difluorophenyl)methyl]-2-methylphenyl}carbamate]	> 14000	13	85	89	100	>157	110
COc1c(COC(=O)Nc2ccc(Oc3ccc(F)c(F)c3)cc2Cl)ccc2c1C(=O)N(C1CCC(=O)NC1=O)C2 (stereo not shown) [Example 46, [2-(2,6-dioxopiperidin-3-yl)-4-methoxy-3-oxo-2,3-dihydro-1H-isoindol-5-yl]methyl N-[2-chloro-4-(3,4-difluorophenoxy)phenyl]carbamate]	> 14000	42	376	357	105	>39	102
COc1c(COC(=O)Nc2ccc(Oc3ccc(F)cc3F)cc2F)ccc2c1C(=O)N(C1CCC(=O)NC1=O)C2 (stereo not shown) [Example 30, [2-(2,6-dioxopiperidin-3-yl)-4-methoxy-3-oxo-2,3-dihydro-1H-isoindol-5-yl]methyl N-[4-(2,4-difluorophenoxy)-2-fluorophenyl]carbamate]	> 14000	31	442	672	103	>21	107
O=C1CCC(N2Cc3ccc(COC(=O)Nc4ccc(Oc5ccc(F)cc5Cl)cc4)c(Oc4ccccc4)c3C2=O)C(=O)N1 (stereo not shown) [Example 70, [2-(2,6-dioxopiperidin-3-yl)-3-oxo-4-phenoxy-2,3-dihydro-1H-isoindol-5-yl]methyl N-[4-(2-chloro-4-fluorophenoxy)phenyl]carbamate]	> 14000	9	223	185	94	>76	114
O=C1CCC(N2Cc3ccc(COC(=O)Nc4ccc(Oc5ccccc5)cc4)c(O[C@@H]4CCCOC4)c3C2=O)C(=O)N1 (stereo partly drawn) [Example 142, [2-(2,6-dioxopiperidin-3-yl)-4-[(3R)-oxan-3-yloxy]-3-oxo-2,3-dihydro-1H-isoindol-5-yl]methyl N-(4-phenoxyphenyl)carbamate]	> 14000	4	145	22	108	>635	139
O=C1CCC(N2Cc3ccc(COC(=O)Nc4ccc(Oc5ccc(F)c(F)c5)cc4)c(O[C@H]4CCOC4)c3C2=O)C(=O)N1 (stereo partly drawn) [Example 152, [2-(2,6-dioxopiperidin-3-yl)-3-oxo-4-[(3S)-oxolan-3-yloxy]-2,3-dihydro-1H-isoindol-5-yl]methyl N-[4-(3,4-difluorophenoxy)phenyl]carbamate]	> 14000	32	152	152	108	>92	120

More lines, main results first:

DC50 [1] [nM]	Dmax [1] [%]	IC50 [2] [nM]	DC50 [3] [nM]	Dmax [3] [%]	Ratio of GSPT1 DC50/Cyclin E1 DC50 [3]	SMILES	Emax [2] [%]
–	–	175	74	104	–	O=C1CCC(N2Cc3ccc(COC(=O)Nc4ccc(Oc5cccc(Cl)c5)cc4)c(O[C@@H]4CCOC4)c3C2=O)C(=O)N1 (stereo partly drawn) [Example 158, [2-(2,6-dioxopiperidin-3-yl)-3-oxo-4-[(3R)-oxolan-3-yloxy]-2,3-dihydro-1H-isoindol-5-yl]methyl N-[4-(3-chlorophenoxy)phenyl]carbamate]	109
–	–	39	101	103	–	O=C1CCC(N2Cc3ccc(COC(=O)Nc4ccc(Oc5cccc(F)c5F)cc4)c(O[C@@H]4CCOC4)c3C2=O)C(=O)N1 (stereo partly drawn) [Example 156, [2-(2,6-dioxopiperidin-3-yl)-3-oxo-4-[(3R)-oxolan-3-yloxy]-2,3-dihydro-1H-isoindol-5-yl]methyl N-[4-(2,3-difluorophenoxy)phenyl]carbamate]	116
–	–	188	176	100	–	O=C1CCC(N2Cc3ccc(COC(=O)Nc4ccc(Oc5ccc(F)cc5Cl)cc4)c(O[C@@H]4CCOC4)c3C2=O)C(=O)N1 (stereo partly drawn) [Example 155, [2-(2,6-dioxopiperidin-3-yl)-3-oxo-4-[(3R)-oxolan-3-yloxy]-2,3-dihydro-1H-isoindol-5-yl]methyl N-[4-(2-chloro-4-fluorophenoxy)phenyl]carbamate]	116
–	–	65	116	99	–	O=C1CCC(N2Cc3ccc(COC(=O)Nc4ccc(Oc5ccc(F)cc5F)cc4)c(O[C@@H]4CCOC4)c3C2=O)C(=O)N1 (stereo partly drawn) [Example 157, [2-(2,6-dioxopiperidin-3-yl)-3-oxo-4-[(3R)-oxolan-3-yloxy]-2,3-dihydro-1H-isoindol-5-yl]methyl N-[4-(2,4-difluorophenoxy)phenyl]carbamate]	119

Reference: patent publication US20250084056A1, “SUBSTITUTED OXOISOINDOLINYL PIPERIDINE-2,6-DIONE COMPOUNDS” (BRISTOL-MYERS SQUIBB COMPANY, priority 2023, published 2025)
